# Assay results published in US8334382B2, “Substituted biaryl piperazinyl-pyridine analogues” (Neurogen Corporation, priority 2004, dated 2012).
# Biological target: T1, human capsaicin receptor (Homo sapiens, UniProt Q8NER1)
# T1 construct: expressed in transfected cells; host or cells: HEK293, stably transfected with pBK-CMV construct
# Test: Calcium mobilization assay, determination of antagonist activity
# Format: cell-based
# Settings: capsaicin at EC50; cells expressing human capsaicin receptor; Example 6
# Experimental: A cDNA encoding full length human capsaicin receptor (SEQ ID NO:1, 2 or 3 of U.S. Pat. No. 6,482,611) is subcloned in the plasmid pBK-CMV (Stratagene, La Jolla, Calif.) for recombinant expression in mammalian cells.
# Human embryonic kidney (HEK293) cells are transfected with the pBK-CMV expression construct encoding the full length human capsaicin receptor using standard methods. The transfected cells are selected for two weeks in media containing G418 (400 μg/ml) to obtain a pool of stably transfected cells. Independent clones are isolated from this pool by limiting dilution to obtain clonal stable cell lines for use in subsequent experiments.
# Cells transfected with expression plasmids (as described in Example 4) and thereby expressing human capsaicin receptor are seeded and grown to 70-90% confluency in FALCON black-walled, clear-bottomed 96-well plates (#3904, BECTON-DICKINSON, Franklin Lakes, N.J.). The culture medium is emptied from the 96 well plates and FLUO-3 AM calcium sensitive dye (Molecular Probes, Eugene, Oreg.) is added to each well (dye solution: 1 mg FLUO-3 AM, 440 μL DMSO and 440 μl 20% pluronic acid in DMSO, diluted 1:250 in Krebs-Ringer HEPES (KRH) buffer (25 mM HEPES, 5 mM KCl, 0.96 mM NaH2PO4, 1 mM MgSO4, 2 mM CaCl2, 5 mM glucose, 1 mM probenecid, pH 7.4), 50 μl diluted solution per well). Plates are covered with aluminum foil and incubated at 37° C. for 1-2 h in an environment containing 5% CO2. After the incubation, the dye is emptied from the plates, and the cells are washed once with KRH buffer, and resuspended in KRH buffer.
# To measure the ability of a test compound to agonize or antagonize a calcium mobilization response in cells expressing capsaicin receptors to capsaicin or other vanilloid agonist, the EC50 of the agonist capsaicin is first determined. An additional 20 μl of KRH buffer and 1 μl DMSO is added to each well of cells, prepared as described above. 100 μl capsaicin in KRH buffer is automatically transferred by the FLIPR instrument to each well. Capsaicin-induced calcium mobilization is monitored using either FLUOROSKAN ASCENT (Labsystems; Franklin, Mass.) or FLIPR (fluorometric imaging plate reader system; Molecular Devices, Sunnyvale, Calif.) instruments. Data obtained between 30 and 60 seconds after agonist application are used to generate an 8-point concentration response curve, with final capsaicin concentrations of 1 nM to 3 μM. KALEIDAGRAPH software (Synergy Software, Reading, Pa.) is used to fit the data to the equation: y=a*(1/(1+(b/x)^c)) to determine the 50% excitatory concentration (EC50) for the response. In this equation, y is the maximum fluorescence signal, x is the concentration of the agonist or antagonist (in this case, capsaicin), a is the Emax, b corresponds to the EC50 value and c is the Hill coefficient. Determination of Agonist Activity
# Test compounds are dissolved in DMSO, diluted in 20 μl KRH buffer so that the final concentration of test compounds in the assay well is between 1 μM and 5 μM, and added to cells prepared as described above. The 96 well plates containing prepared cells and test compounds are incubated in the dark, at room temperature for 0.5 to 6 h. It is important that the incubation not continue beyond 6 h. Just prior to determining the fluorescence response, 100 μl capsaicin in KRH buffer at twice the EC50 concentration determined as described above is automatically added by the FLIPR instrument to each well of the 96 well plate for a final sample volume of 200 μl and a final capsaicin concentration equal to the EC50. The final concentration of test compounds in the assay wells is between 1 μM and 5 μM. […] The concentration of antagonist required to provide a 50% decrease, relative to the response observed in the presence of capsaicin and without antagonist, is the IC50 for the antagonist, and is preferably below 1 micromolar, 100 nanomolar, 10 nanomolar or 1 nanomolar.
# T1 sequence (Q8NER1 whole entry): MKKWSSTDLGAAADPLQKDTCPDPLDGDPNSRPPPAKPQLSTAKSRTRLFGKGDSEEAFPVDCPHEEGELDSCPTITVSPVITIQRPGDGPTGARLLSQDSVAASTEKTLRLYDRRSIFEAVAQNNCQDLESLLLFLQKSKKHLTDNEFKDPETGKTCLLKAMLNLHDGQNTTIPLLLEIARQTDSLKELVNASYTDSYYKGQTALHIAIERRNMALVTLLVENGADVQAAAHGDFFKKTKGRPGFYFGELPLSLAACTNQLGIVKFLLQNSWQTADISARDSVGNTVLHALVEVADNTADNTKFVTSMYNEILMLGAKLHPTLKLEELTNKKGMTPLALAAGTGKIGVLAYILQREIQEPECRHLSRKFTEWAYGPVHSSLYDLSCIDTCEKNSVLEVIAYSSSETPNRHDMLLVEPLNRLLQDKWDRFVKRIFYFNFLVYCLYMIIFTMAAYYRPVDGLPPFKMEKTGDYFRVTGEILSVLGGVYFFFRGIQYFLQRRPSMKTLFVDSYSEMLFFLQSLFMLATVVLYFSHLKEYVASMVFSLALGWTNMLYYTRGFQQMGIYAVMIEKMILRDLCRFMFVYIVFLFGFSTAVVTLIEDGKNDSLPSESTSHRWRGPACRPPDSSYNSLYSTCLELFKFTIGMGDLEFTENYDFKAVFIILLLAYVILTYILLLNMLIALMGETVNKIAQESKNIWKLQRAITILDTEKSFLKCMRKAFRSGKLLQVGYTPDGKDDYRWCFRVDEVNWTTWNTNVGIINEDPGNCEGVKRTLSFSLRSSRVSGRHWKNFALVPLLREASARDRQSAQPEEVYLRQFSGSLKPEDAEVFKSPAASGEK
row,Structure (SMILES),IC50 [µM]
1,"CC1CCCN1c1nc(-c2ccc(F)c(Cl)c2)cc(N2CCN(c3ncc(C(=O)O)cc3Cl)CC2)n1 (stereo not shown) [Example 21, 5-Chloro-6-{4-[6-(3-chloro-4-fluoro-phenyl)-2-(2-methyl-pyrrolidin-1-yl)-pyrimidin-4-yl]-piperazin-1-yl}-nicotinic acid]",≤ 1
2,"Cc1cc(C(=O)O)cnc1N1CCN(c2cc(-c3ccc(F)cc3)nc(N3CCCC3C)n2)[C@H](C)C1 (stereo partly drawn) [Example 34, 6-{4-[6-(4-Fluoro-phenyl)-2-(2-methyl-pyrrolidin-1-yl)-pyrimidin-4-yl]-3-(R)-methyl-piperazin-1-yl}-5-methyl-nicotinic acid]",≤ 1
3,"CCOC(=O)c1cnc(N2CCN(c3cc(-c4ccncc4)nc(N4CCCC4C)n3)[C@H](C)C2)c(C)c1 (stereo partly drawn) [Example 60, 5-Methyl-6-{3-(R)-methyl-4-[2-(2-methyl-pyrrolidin-1-yl)-6-pyridin-4-yl-pyrimidin-4-yl] -piperazin-1-yl}-nicotinic acid ethyl ester]",≤ 1
4,"Cc1cc(CO)cnc1N1CCN(c2cc(-c3ccc(F)cc3)nc(N3CCCC3C)n2)[C@H](C)C1 (stereo partly drawn) [Example 37, (6-{4-[6-(4-Fluoro-phenyl)-2-(2-methyl-pyrrolidin-1-yl)-pyrimidin-4-yl]-3-(R)-methyl-piperazin-1-yl}-5-methyl-pyridin-3-yl)-methanol]",≤ 1
5,"Cc1cc(C(=O)O)cnc1N1CCN(c2cc(-c3ccc(F)cc3)nc(N3CCCC3C)n2)CC1 (stereo not shown) [Example 36, 6-{4-[6-(4-Fluoro-phenyl)-2-(2-methyl-pyrrolidin-1-yl)-pyrimidin-4-yl]-piperazin-1-yl}-5-methyl-nicotinic acid]",≤ 1
6,"O=[N+]([O-])c1cccnc1N1CCN(c2cc(-c3ccc(F)c(Cl)c3)nc(N3CCOCC3)n2)CC1 [Example 4, 4-{4-(3-Chloro-4-fluoro-phenyl)-6-[4-(3-nitro-pyridin-2-yl)-piperazin-1-yl]-pyrimidin-2-yl}-morpholine]",≤ 1
7,"CC1CCCN1c1nc(-c2cncc(Cl)c2)cc(N2CCN(c3ncc(C(=O)O)cc3Cl)C[C@H]2C)n1 (stereo partly drawn) [Example 52, 5-Chloro-6-{4-[6-(5-chloro-pyridin-3-yl)-2-(2-methyl-pyrrolidin-1-yl)-pyrimidin-4-yl]-3-(R)-methyl-piperazin-1-yl}-nicotinic acid]",≤ 1
8,"O=C(O)c1cccnc1N1CCN(c2cc(-c3ccc(F)c(Cl)c3)nc(N3CCOCC3)n2)CC1 [Example 3, 2-{4-[6-(3-Chloro-4-fluoro-phenyl)-2-morpholin-4-yl-pyrimidin-4-yl] - piperazin-1-yl}-nicotinic acid]",≤ 1
9,"CCOC(=O)c1cnc(N2CCN(c3cc(-c4ccc(F)c(Cl)c4)nc(N4CCCC4C)n3)[C@H](C)C2)c(Cl)c1 (stereo partly drawn) [Example 18, 5-Chloro-6-{4-[6-(3-chloro-4-fluoro-phenyl)-2-(2-methyl-pyrrolidin-l-yl)-pyrimidin-4-yl]-3-(R)-methyl-piperazin-1-yl}-nicotinic acid ethyl ester]",≤ 1
10,"Cc1cccc(-c2cc(N3CCN(c4ncc(C(N)=O)cc4C)CC3)nc(N3CCCC3C)n2)c1 (stereo not shown) [Example 88, 5-Methyl-6-{4-[2-(2-methyl-pyrrolidin-1-yl)-6-m-tolyl-pyrimidin-4-yl]-piperazin-1-yl}-nicotinamide]",≤ 1
11,"CC1CCCN1c1nc(-c2ccc(F)cc2)cc(N2CCN(c3ncc(CC(=O)O)cc3Cl)CC2)n1 (stereo not shown) [Example 39, (5-Chloro-6-{4-[6-(4-fluoro-phenyl)-2-(2-methyl-pyrrolidin-1-yl)-pyrimidin-4-yl]-piperazin-1-yl}-pyridin-3-yl)-acetic acid]",≤ 1
12,"Cc1cc(C(N)=O)cnc1N1CCN(c2cc(-c3ccccc3)nc(N3CCCC3C)n2)[C@H](C)C1 (stereo partly drawn) [Example 82, 5-Methyl-6-{3-(R)-methyl-4-[2-(2-methyl-pyrrolidin-1-yl)-6-phenyl-pyrimidin-4-yl]-piperazin-1-yl}-nicotinamide]",≤ 1

# Next, values leading:
row,IC50 [µM],Structure (SMILES)
1,≤ 1,"Cc1cc(C(=O)N2CCCCC2)cnc1N1CCN(c2cc(-c3ccc(F)cc3)nc(N3CCCC3C)n2)CC1 (stereo not shown) [Example 123, 4-(4-fluorophenyl)-6-{4-[3-methyl-5-(piperidin-1-ylcarbonyl)pyridin-2-yl]piperazin-1-yl}-2-(2-methylpyrrolidin-1-yl)pyrimidine]"
2,≤ 1,"C[C@@H]1CN(c2ncc(CCO)cc2Cl)CCN1c1cc(-c2ccc(F)c(Cl)c2)nc(N2CCC[C@H]2C)n1 [Example 185, 2-[5-chloro-6-((3R)-4-{6-(3-chloro-4-fluorophenyl)-2-[(2R)-2-methylpyrrolidin-1-yl]pyrimidin-4-yl}-3-methylpiperazin-1-yl)pyridin-3-yl]ethanol]"
3,≤ 1,"Cc1ccc(C(=O)O)nc1N1CCN(c2cc(-c3ccc(F)cc3)nc(N3CCC[C@H]3C)n2)[C@H](C)C1 [Example 144, 6-{4-[6-(4-Fluoro-phenyl)-2-(2-(R)-methyl-pyrrolidin-l-yl)-pyrimidin-4-yl]-3-(R)-methyl-piperazin-1-yl}-5-methyl-pyridine-2-carboxylic acid]"
4,≤ 1,"Cc1cc(C(=O)O)cnc1N1CCN(c2cc(-c3ccc(F)cc3)nc(N3CCC[C@H]3CO)n2)[C@H](C)C1 [Example 151, 6-{4-[6-(4-Fluoro-phenyl)-2-(2-(S)-hydroxymethyl-pyrrolidin-l-yl)-pyrimidin-4-yl]-3-(R)-methyl-piperazin-1-yl}-5-methyl-nicotinic acid]"
5,≤ 1,"Cc1cc(C(N)=O)cnc1N1CCN(c2cc(-c3ccnc(C(C)C)c3)nc(N3CCCC3C)n2)CC1 (stereo not shown) [Example 90, 6-{4-[6-(2-Isopropyl-pyridin-4-yl)-2-(2-methyl-pyrrolidin-1-yl)-pyrimidin-4-yl]-piperazin-1-yl}-5-methyl-nicotinamide]"
6,≤ 1,"Cc1cc(C(=O)NCc2ccccc2)cnc1N1CCN(c2cc(-c3ccc(F)cc3)nc(N3CCCC3C)n2)CC1 (stereo not shown) [Example 113, N-benzyl-6-{4-[6-(4-fluorophenyl)-2-(2-methylpyrrolidin-1-yl)pyrimidin-4-yl]piperazin-1-yl}-5-methylnicotinamide]"
7,≤ 1,"COCCN1CCN(C(=O)c2cnc(N3CCN(c4cc(-c5ccc(F)cc5)nc(N5CCCC5C)n4)CC3)c(C)c2)CC1 (stereo not shown) [Example 132, 4-(4-fluorophenyl)-6-[4-(5-{[4-(2-methoxyethyl)piperazin-1-yl]carbonyl}-3-methylpyridin-2-yl)piperazin-1-yl]-2-(2-methylpyrrolidin-1-yl)pyrimidine]"
8,≤ 1,"Cc1cc(C(=O)N2CCC(N(C)C)C2)cnc1N1CCN(c2cc(-c3ccc(F)cc3)nc(N3CCCC3C)n2)CC1 (stereo not drawn) [Example 139, l-[(6-{4-[6-(4-fluorophenyl)-2-(2-methylpyrrolidin-1-yl)pyrimidin-4-yl]piperazin-1-yl}-5-methylpyridin-3-yl)carbonyl]-N,N-dimethylpyrrolidin-3 amine]"
9,≤ 1,"CNCCc1cnc(N2CCN(c3cc(-c4ccc(F)c(Cl)c4)nc(N4CCC[C@H]4C)n3)[C@H](C)C2)c(Cl)c1 [Example 187, 2-[5-chloro-6-((3R)-4-{6-(3-chloro-4-fluorophenyl)-2-[(2R)-2-methylpyrrolidin-1-yl]pyrimidin-4-yl}-3-methylpiperazin-1-yl)pyridin-3-yl]-N-methylethanamine]"
10,≤ 1,"CC(C)N(C)c1nc(-c2ccc(F)cc2)cc(N2CCN(c3ncc(C(=O)O)cc3Cl)C[C@H]2C)n1 [Example 157, 5-Chloro-6-{4-[6-(4-fluoro-phenyl)-2-(isopropyl-methyl-amino)-pyrimidin-4-yl]-3-(R)-methyl-piperazin-1-yl}-nicotinic acid]"
